{"source": "paper PMC11083148", "about": "“Structure–Activity Relationship Studies on Highly Functionalized Pyrazole Hydrazones and Amides as Antiproliferative and Antioxidant Agents” (International Journal of Molecular Sciences, 2024)", "key": {"SKMEL28": {"tested_on": "SKMEL28", "assay": "MTT assay, antiproliferative activity", "assay_type": "cell-based", "conditions": "Homo sapiens; for Mean growth percentage at 10 µM: SK-MEL-28, 10 µM, 48h"}, "HeLa": {"tested_on": "HeLa", "assay": "MTT assay, antiproliferative activity", "assay_type": "cell-based", "conditions": "Homo sapiens; for activity at 10 µM: 48h, read-out: Mean Growth Percentage"}, "washed platelets [1]": {"tested_on": "washed platelets", "assay": "ROS assay in platelets (DCFH-DA, thrombin-stimulated)", "assay_type": "cell-based, human", "conditions": "Homo sapiens, Platelet, 0.1 U/mL thrombin, mean ± SD, read-out: IC50 ROS production inhibition", "outline": "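Washed human platelets (1.0 × 10^8/mL) in pH 7.4 HEPES buffer were pre-incubated 15 min at 37 °C with compound, then stimulated with 0.1 U/mL thrombin. ROS was read as DCF fluorescence from DCFH-DA by flow cytometry. IC50 comes from three-point concentration-response nonlinear regression versus saline control, mean of six experiments.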"}, "NCI-H226": {"tested_on": "NCI-H226", "assay": "NCI screening, Non-Small Cell Lung Cancer", "assay_type": "cell-based", "conditions": "10 µM", "experimental": "(§1) In addition, 11a and 17 (representative compounds of the acylhydrazone and amide series) were selected by the National Cancer Institute (NCI, Germantown, MD, USA) and tested at a fixed concentration of 10 µM against a panel of fifty-nine different cancer cell lines, including highly metastatic tumors (Table 2)."}, "NCI-H23": {"tested_on": "NCI-H23", "assay": "NCI screening, Non-Small Cell Lung Cancer", "assay_type": "cell-based", "conditions": "10 µM", "experimental": "as §1"}, "NCI-H322M": {"tested_on": "NCI-H322M", "assay": "NCI screening, Non-Small Cell Lung Cancer", "assay_type": "cell-based", "conditions": "10 µM", "experimental": "as §1"}, "HOP-62": {"tested_on": "HOP-62", "assay": "NCI screening, Non-Small Cell Lung Cancer", "assay_type": "cell-based", "conditions": "HOP-62, Non-Small Cell Lung Cancer; 10 µM", "experimental": "as §1"}, "EKVX": {"tested_on": "EKVX", "assay": "NCI screening, Non-Small Cell Lung Cancer", "assay_type": "cell-based", "conditions": "10 µM", "experimental": "as §1"}, "A549/ATCC": {"tested_on": "A549/ATCC", "assay": "NCI screening, Non-Small Cell Lung Cancer", "assay_type": "cell-based", "conditions": "10 µM", "experimental": "as §1"}, "HOP-92": {"tested_on": "HOP-92", "assay": "NCI screening, Non-Small Cell Lung Cancer", "assay_type": "cell-based", "conditions": "HOP-92, Non-Small Cell Lung Cancer; 10 µM", "experimental": "as §1"}, "washed platelets [2]": {"tested_on": "washed platelets", "assay": "Platelet aggregation (thrombin-induced, Born's method)", "assay_type": "cell-based", "conditions": "Homo sapiens, 0.1 U/mL thrombin, mean ± SD, read-out: IC50 Aggregation inhibition", "outline": "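Washed human platelets (3.0 × 10^8/mL) were preincubated with compound at 37 °C for 3 min. Aggregation was then triggered with 0.1 U/mL thrombin and measured by Born's turbidimetric method, with IC50 values calculated from the response.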"}}, "data": [{"smiles": "COc1ccc(/C=N/NC(=O)c2c(N)nn(C)c2Nc2ccccc2)cc1", "note": "[11a, (E)-3-amino-N′-(4-methoxybenzylidene)-1-methyl-5-(phenylamino)-1H-pyrazole-4-carbohydrazide]", "values": [{"measurement": "Mean growth percentage at 10 µM", "setting": "SKMEL28", "result": 49.4, "unit": "%"}, {"measurement": "IC50", "setting": "SKMEL28; SK-MEL-28, MTT", "result": "9.45 ± 0.66", "unit": "µM"}, {"measurement": "activity at 10 µM", "setting": "HeLa", "result": 25, "unit": "%"}, {"measurement": "IC50", "setting": "HeLa; MTT", "result": "4.63 ± 0.41", "unit": "µM"}, {"measurement": "IC50", "setting": "washed platelets [1]", "result": "123 ± 12", "unit": "µM"}, {"measurement": "Growth Percentage (%)", "setting": "NCI-H226", "result": 51.61, "unit": "%"}, {"measurement": "Growth Percentage (%)", "setting": "NCI-H23", "result": 66.86, "unit": "%"}, {"measurement": "Growth Percentage (%)", "setting": "NCI-H322M", "result": 89.96, "unit": "%"}, {"measurement": "Growth Percentage (%)", "setting": "HOP-62", "result": 38.79, "unit": "%"}, {"measurement": "Growth Percentage (%)", "setting": "EKVX", "result": 69.71, "unit": "%"}, {"measurement": "Growth Percentage (%)", "setting": "A549/ATCC", "result": 57.09, "unit": "%"}, {"measurement": "Growth Percentage (%)", "setting": "HOP-92", "result": 46.79, "unit": "%"}, {"measurement": "IC50", "setting": "washed platelets [2]", "result": "183 ± 13", "unit": "µM"}]}, {"smiles": "CCOC(=O)c1c(NC(=O)C2CC2)nn(C)c1Nc1ccccc1", "note": "[compound 17, Ethyl 3-(cyclopropanecarboxamido)-1-methyl-5-(phenylamino)-1H-pyrazole-4-carboxylate]", "values": [{"measurement": "Mean growth percentage at 10 µM", "setting": "SKMEL28", "result": 85.9, "unit": "%"}, {"measurement": "activity at 10 µM", "setting": "HeLa", "result": 109, "unit": "%"}, {"measurement": "IC50", "setting": "washed platelets [1]", "result": 573, "unit": "µM"}, {"measurement": "Growth Percentage (%)", "setting": "NCI-H226", "result": 98.86, "unit": "%"}, {"measurement": "Growth Percentage (%)", "setting": "NCI-H23", "result": 98.44, "unit": "%"}, {"measurement": "Growth Percentage (%)", "setting": "NCI-H322M", "result": 94.41, "unit": "%"}, {"measurement": "Growth Percentage (%)", "setting": "HOP-62", "result": 110.36, "unit": "%"}, {"measurement": "Growth Percentage (%)", "setting": "EKVX", "result": 96.82, "unit": "%"}, {"measurement": "Growth Percentage (%)", "setting": "A549/ATCC", "result": 101.59, "unit": "%"}, {"measurement": "Growth Percentage (%)", "setting": "HOP-92", "result": 81.47, "unit": "%"}, {"measurement": "IC50", "setting": "washed platelets [2]", "result": 460, "unit": "µM"}]}]}
